Type in all cases: cell-based
For assay [1], the target named is T1, heteromeric KV7.2/KV7.3 channels (KCNQ2, KCNQ3) (Homo sapiens, UniProt O43525+O43526).
T1 construct: expressed in transfected cells; host or cells: CHO-K1
The experiment in a line: Automated patch-clamp (Sophion Qube 384) potency assay against KV7.2/KV7.3 channels. The following applies: CHO-K1/Kv7.2/Kv7.3 cells; for EC50: EC50 from concentration-response of shift in Vhalf, 10 concentrations up to 30 μM, read-out: Kv7.2/7.3 EC50; for Kv7.2/7.3 ΔV1/2: maximal shift in the Vhalf from the top of the curve. The text has this:
Assessment of In Vitro Potency Against KV7.2/KV7.3 Channels
An automated patch-clamp assay on the Sophion Qube 384 was developed for potency testing to identify small molecule activators of heteromeric KV7.2/KV7.3 channels (KCNQ2, Uniprot ID 043526; KCNQ3, Uniprot 043525).
The cell line used was a stably transfected CHO-K1 cell line with constitutive KV7.2/KV7.3 expression.
CHO-K1/Kv7.2/Kv7.3 cells were maintained in the following culture media: • DMEM/F-12 with GlutaMAX™ (Gibco 31331-028), • 10% Fetal clone 2 serum (Perbio Science SH30066.03), • 1 mg/ml Geneticin™ selective antibiotic (G418, Invitrogen 1013027), and • 5 μg/ml BlasticidinS HCl (Invivogen Ant-bl-5).
On the day of the experiment, cells were resuspended in serum free media, counted and diluted to a final concentration of 3.5×10^6 cells per ml of media.
Cells were then placed onto the Sophion Qube 384 and rested for a minimum of 1 hour.
The following solutions were used for recording: • extracellular solution (in mM): 145 NaCl, 4 KCl, 1 MgCl2, 2 CaCl2), 10 HEPES, 10 glucose, pH 7.4, 315-320 mOsm. • intracellular solution (in mM): 120 KCl, 5.74 CaCl2), 1.75 MgCl2, 10 EGTA, 10 HEPES, 5 Na2ATP, pH 7.2, adjusted to 315 mOsm with sucrose.
After establishing the whole-cell configuration, cells were held at −80 mV throughout the experiment. A current-voltage (I-V) protocol stepping from −100 to +20 mV for 1 second was applied to measure Kv7.2/Kv7.3 currents, each step was followed by a 200 ms pulse to 0 mV to measure the tail currents. From the I-V protocol a Boltzmann fit was applied to generate activation curves. Data were sampled at 25 kHz and filtered at 5 kHz (Bessel). Data were produced using multihole QChips. The I-V protocol was applied several times to establish the response in control conditions (typically 0.3% DMSO) and in the presence of the test compound.
Data were reviewed in Sophion Analyser version 6.5.2 (Sophion Bioscience) for recording quality and filters were applied to remove any failed wells. Leak subtraction was applied to all recordings. Data filters for multihole QChips were typically: seal resistance>4 MΩ, capacitance >20 pF, baseline VHalf between 0 to −40 mV, baseline holding current between −2 to 2 nA, baseline steady state current at 20 mV >4 nA unless otherwise stated.
(§1) Analysis of Data for Assessment of Potency
(§2) 10 concentrations of test compounds were applied to individual wells in quadruplicate to assess potency as a 1 in 3 dilution series from the maximal concentration of 30 μM. The average shift in the voltage for half activation (Vhalf) for each concentration was used to generate concentration-response curves fitted with a 4-parameter logistic model to estimate the EC50 from the point of inflection of the curve and the maximal shift in the Vhalf from the top of the curve.
(§3) The lower the EC50 value, the higher the potency of the analyzed compound. The selectivity criteria is assigned on the basis of the maximal shift in the Vhalf at 30 μM. […] In Table 3, ND means that selectivity was not determined.
In general terms: In patch-clamp work, channel activity is measured electrically.

The target in assay [2] is T2, homomeric KV7.4 channel (KCNQ4) (Homo sapiens, UniProt P56696).
T2 construct: host or cells: CHO-K1
The experiment in a line: Automated patch-clamp (Qube) counter-screening assay against KV7.4 channel. The following applies: CHO-K1 cells expressing KV7.4; class by maximal shift in the Vhalf at 30 μM.
Text: Assessment of In Vitro Potency Against KV7.4 Channels
A counter-screening assay was also developed on the Qube against the homomeric KV7.4 channel (KCNQ4, Uniprot ID P56696). The cell line used was a stably transfected CHO-K1 with constitutive KV7.4 expression supplied by Charles River Laboratories.
CHO-K1 cells stably expressing KV7.4 channels were maintained in the following culture media: • Hams F-12 with GlutaMAX™ (Life Technologies 31765027), • 10% Fetal clone 2 serum (Perbio Science SH30066.03), and • 250 μg/ml Geneticin™ selective antibiotic (G418, Invitrogen 1013-027).
(§4) Cell maintenance, preparation, recording conditions and voltage protocols were all identical to those above.
as §1, §2, §3

Assay [3] has as its target T3, heteromeric KV7.3/KV7.5 channel (KCNQ3, KCNQ5) (Homo sapiens, UniProt O43525+Q9NR82).
T3 construct: host or cells: HEK293
The experiment in a line: Automated patch-clamp counter-screening against KV7.3/KV7.5 channel. The following applies: HEK293 cells expressing Kv7.3/KV7.5; class by maximal shift in the Vhalf at 30 μM. The protocol:
Assessment of in vitro potency against KV7.3/KV7.5 channels
Counter-screening was also carried out against the heteromeric KV7.3/KV7.5 channel (KCNQ3, Uniprot ID 043525; KCNQ5, Uniprot ID Q9NR82). The cell line used was a stably transfected HEK293 cell line with constitutive Kv7.3 expression and tetracycline inducible KV7.5 expression supplied by Charles River Laboratories.
Cells were maintained in the following culture media: • DMEM/F-12 with GlutaMAX™ (Life Technologies 31331-028), • 10% Tet Systems FCS (Clonetech 631106), • 500 μg/ml Geneticin™ selective antibiotic (G418, Invitrogen 1013-027), • 5 μg/ml Blasticidin S HCl (InvivoGen ant-bl-5), and • 100 μg/ml Zeocin (InvivoGen: ant-zn-5).
as §4, §1, §2, §3

For the compound `O=C(NCc1ccnc(OCc2ccccc2)c1)NCC(O)C1(C(F)(F)F)CC1` (racemic) [Compound 5, (±)-1-((2-(Benzyloxy)pyridin-4-yl)methyl)-3-(2-hydroxy-2-(1-(trifluoromethyl)cyclopropyl)ethyl)urea], in assay [1], the EC50 stood at 2390 nM and the “Kv7.2/7.3 ΔV1/2” value was 21.49 mV. Moreover, in assay [2], the Kv7.4 selectivity criteria entry was “A (Selective compounds showed Kv7.4 and/or Kv7.3/7.5 ΔV1/2 equal to or lower than 15 mV (letter A in table 3))”. Further, in assay [3], the Kv7.3/7.5 selectivity criteria entry is “A (Selective compounds showed Kv7.4 and/or Kv7.3/7.5 ΔV1/2 equal to or lower than 15 mV (letter A in table 3))”.

For the compound `O=C(NCc1ccnc(OCC(F)(F)F)c1)NC1CCc2ccc(F)cc21` (racemic) [Compound 81, (±)-1-(6-Fluoro-2,3-dihydro-1H-inden-1-yl)-3-((2-(2,2,2-trifluoroethoxy)pyridin-4-yl)methyl)urea], in assay [1], the EC50 stood at 310 nM and the “Kv7.2/7.3 ΔV1/2” value was 14.75 mV. The Kv7.4 selectivity criteria entry in assay [2] is listed as “A (Selective compounds showed Kv7.4 and/or Kv7.3/7.5 ΔV1/2 equal to or lower than 15 mV (letter A in table 3))”. Also, the Kv7.3/7.5 selectivity criteria entry in assay [3] is on record as “A (Selective compounds showed Kv7.4 and/or Kv7.3/7.5 ΔV1/2 equal to or lower than 15 mV (letter A in table 3))”.

As for `O=C(NCc1ccnc(OCc2ccccc2)c1)Nc1cccc(F)c1` [Compound 1, 1-((2-(Benzyloxy)pyridin-4-yl)methyl)-3-(3-fluorophenyl)urea], in assay [1], the EC50 is 600 nM and the “Kv7.2/7.3 ΔV1/2” value is reported as 30.51 mV. Besides, the Kv7.4 selectivity criteria entry in assay [2] is “B (Non-selective compounds showed Kv7.4 and/or Kv7.3/7.5 ΔV1/2 higher than 15 mV (letter B in table 3))”. Moreover, the Kv7.3/7.5 selectivity criteria result in assay [3] is recorded as “B (Non-selective compounds showed Kv7.4 and/or Kv7.3/7.5 ΔV1/2 higher than 15 mV (letter B in table 3))”.

Take `O=C(NCc1cccc(F)c1)NCc1ccnc(OCc2ccccc2)c1` [Compound 2, 1-((2-(Benzyloxy)pyridin-4-yl)methyl)-3-(3-fluorobenzyl)urea]: in assay [1], the EC50 stood at 966 nM and the “Kv7.2/7.3 ΔV1/2” value is 16.51 mV. Further, the Kv7.4 selectivity criteria result in assay [2] is “A (Selective compounds showed Kv7.4 and/or Kv7.3/7.5 ΔV1/2 equal to or lower than 15 mV (letter A in table 3))”. Moreover, the Kv7.3/7.5 selectivity criteria result in assay [3] is on record as “A (Selective compounds showed Kv7.4 and/or Kv7.3/7.5 ΔV1/2 equal to or lower than 15 mV (letter A in table 3))”.

Regarding `O=C(NCCC1(C(F)(F)F)CC1)NCc1ccnc(OCc2ccccc2)c1` [Compound 3, 1-((2-(Benzyloxy)pyridin-4-yl)methyl)-3-(2-(1-(trifluoromethyl)cyclopropyl)ethyl)urea], in assay [1], the EC50 came out at 472 nM and the “Kv7.2/7.3 ΔV1/2” value is 25.42 mV. For the same compound, the Kv7.4 selectivity criteria entry in assay [2] is “A (Selective compounds showed Kv7.4 and/or Kv7.3/7.5 ΔV1/2 equal to or lower than 15 mV (letter A in table 3))”. For the same compound, the Kv7.3/7.5 selectivity criteria entry in assay [3] is “A (Selective compounds showed Kv7.4 and/or Kv7.3/7.5 ΔV1/2 equal to or lower than 15 mV (letter A in table 3))”.

In the case of `CC(C)(C)[C@H](O)CNC(=O)NCc1ccnc(OCc2ccccc2)c1` [Compound 4, (S)-1-((2-(Benzyloxy)pyridin-4-yl)methyl)-3-(2-hydroxy-3,3-dimethylbutyl)urea], in assay [1], the EC50 was 1700 nM and the “Kv7.2/7.3 ΔV1/2” value is listed as 27.28 mV. Moreover, in assay [2], the Kv7.4 selectivity criteria result is on record as “A (Selective compounds showed Kv7.4 and/or Kv7.3/7.5 ΔV1/2 equal to or lower than 15 mV (letter A in table 3))”. In addition, the Kv7.3/7.5 selectivity criteria entry in assay [3] is given as “B (Non-selective compounds showed Kv7.4 and/or Kv7.3/7.5 ΔV1/2 higher than 15 mV (letter B in table 3))”.

In the case of `CN(Cc1ccnc(OCC(F)(F)F)c1)C(=O)NCCC1(C(F)(F)F)CC1` [Compound 7, 1-Methyl-1-((2-(2,2,2-trifluoroethoxy)pyridin-4-yl)methyl)-3-(2-(1-(trifluoromethyl)cyclopropyl)ethyl)urea], in assay [1], the EC50 came to 5130 nM and the “Kv7.2/7.3 ΔV1/2” value is listed as 22.31 mV. In addition, the Kv7.4 selectivity criteria entry in assay [2] is reported as “A (Selective compounds showed Kv7.4 and/or Kv7.3/7.5 ΔV1/2 equal to or lower than 15 mV (letter A in table 3))”. Further, the Kv7.3/7.5 selectivity criteria result in assay [3] is listed as “A (Selective compounds showed Kv7.4 and/or Kv7.3/7.5 ΔV1/2 equal to or lower than 15 mV (letter A in table 3))”.

Take `O=C(NCCC1(C(F)(F)F)CC1)NCc1cc(OCc2ccccc2)ncn1` [Compound 11, 1-((6-(Benzyloxy)pyrimidin-4-yl)methyl)-3-(2-(1-(trifluoromethyl)cyclopropyl)ethyl)urea]: in assay [1], the EC50 is 1830 nM and the “Kv7.2/7.3 ΔV1/2” value was 27.09 mV. For the same compound, the Kv7.4 selectivity criteria entry in assay [2] is “A (Selective compounds showed Kv7.4 and/or Kv7.3/7.5 ΔV1/2 equal to or lower than 15 mV (letter A in table 3))”. Also, the Kv7.3/7.5 selectivity criteria result in assay [3] is listed as “B (Non-selective compounds showed Kv7.4 and/or Kv7.3/7.5 ΔV1/2 higher than 15 mV (letter B in table 3))”.

In the case of `O=C(NCCC1(C(F)(F)F)CC1)NCc1ccnc(OCC2CCOCC2)c1` [Compound 12, 1-((2-((Tetrahydro-2H-pyran-4-yl)methoxy)pyridin-4-yl)methyl)-3-(2-(1-(trifluoromethyl)cyclopropyl)ethyl)urea], in assay [1], the EC50 worked out at 7650 nM and the “Kv7.2/7.3 ΔV1/2” value is reported as 13.2 mV. Further, in assay [2], the Kv7.4 selectivity criteria entry is listed as “A (Selective compounds showed Kv7.4 and/or Kv7.3/7.5 ΔV1/2 equal to or lower than 15 mV (letter A in table 3))”. Further, in assay [3], the Kv7.3/7.5 selectivity criteria entry is “A (Selective compounds showed Kv7.4 and/or Kv7.3/7.5 ΔV1/2 equal to or lower than 15 mV (letter A in table 3))”.

On to `O=C(NCCC1(C(F)(F)F)CC1)NCc1ccnc(OCc2ncco2)c1` [Compound 13, 1-((2-(Oxazol-2-ylmethoxy)pyridin-4-yl)methyl)-3-(2-(1-(trifluoromethyl)cyclopropyl)ethyl)urea], for which, in assay [1], the EC50 came out at 4450 nM and the “Kv7.2/7.3 ΔV1/2” value was found to be 22.29 mV. Moreover, the Kv7.4 selectivity criteria entry in assay [2] was “A (Selective compounds showed Kv7.4 and/or Kv7.3/7.5 ΔV1/2 equal to or lower than 15 mV (letter A in table 3))”. The Kv7.3/7.5 selectivity criteria result in assay [3] was “A (Selective compounds showed Kv7.4 and/or Kv7.3/7.5 ΔV1/2 equal to or lower than 15 mV (letter A in table 3))”.

Consider `O=C(NCc1ccnc(OCC(F)(F)F)c1)NCc1ccnc(OCC(F)(F)F)c1` [Compound 248], for which, in assay [1], the EC50 stood at 2610 nM and the “Kv7.2/7.3 ΔV1/2” value came to 23.91 mV.

With `O=C(NCc1ccnc(OCC(F)(F)F)c1)N[C@@H]1COc2cc(OC(F)(F)F)ccc21` [Compound 249], in assay [1], the EC50 was 3420 nM and the “Kv7.2/7.3 ΔV1/2” value amounted to 26.44 mV.

On to `O=C(NCCC1(C(F)(F)F)CC1)NCc1ccnc(OCC2CC2(F)F)c1` (stereo not shown) [Compound 250], for which, in assay [1], the EC50 was determined as 2580 nM and the “Kv7.2/7.3 ΔV1/2” value is reported as 21.04 mV.

Source of the values: patent US20260207563A1, “UREA COMPOUNDS AS ACTIVATORS OF POTASSIUM CHANNELS KV7.2/7.3 USEFUL IN THE TREATMENT OF CNS AND PNS DISORDERS” (ANGELINI PHARMA S.P.A., priority 2022, published 2026).
